These results are taken from patent US8129547B2, “Anticoagulation of human blood ex vivo” (priority 2006, dated 2012).

SMILES strings stand for the structures.

One assay relates to human vein blood. Description: Storage of human vein blood after anticoagulation with inhibitor (F1+2 immunoassay). The settings on record: 25° C. How it is done: In the sense of the invention anticoagulation means that the re-formation of thrombin is inhibited in the sampled blood. According to the invention thrombin re-formation is inhibited when no more than 1 nM of thrombin is re-formed in the sampled blood. As described above, the activation of prothrombin to thrombin represents an essential step in the blood coagulation cascade. In this case the prothrombin fragment 1+2 (F1+2) is released in equivalent quantities. It is therefore possible to quantify the thrombin actually formed by determining the fragment produced, thus enabling the prothrombin fragment F1+2 to be used as an indirect marker of an activation of prothrombin to thrombin. The concentration of the prothrombin fragment F1+2 formed may be determined immunologically, for example, with commercial enzyme immunoassays (for example Enzygnost F1+2 micro, Dade Behring GmbH, Marburg).
According to the invention anticoagulation therefore means that no more than 1 nM of prothrombin fragment F1+2 is newly formed in the blood after its sampling. […] Without suitable treatment of the blood to prevent coagulation there is an increase in the concentration of the prothrombin fragment F1+2 in this example to well over 1.3 nM, within a few minutes, due to the plasmatic coagulation, i.e. the blood coagulates.
In this experiment it was determined how long human vein blood can be stored without the formation of thrombin or activation of thrombocytes.
For this purpose blood (9 parts) sampled from a patient was mixed with inhibitor solution (0.05 mM, 0.5 mM or 5 mM in physiological NaCl solution; 1 part). Some of the blood was stored at 25° C., the remainder in the refrigerator at 4° C. The quantity of thrombin formed was determined immunologically during storage based on the formation of the prothrombin fragment F1+2 (Enzygnost F1+2 micro, Dade Behring GmbH, Marburg). […] In this case it is irrelevant whether the blood samples were kept at room temperature (approx. 25° C.) or at 4° C.
For this purpose blood (9 parts) sampled from a patient was mixed with inhibitor solution (0.05 mM, 0.5 mM or 5 mM in physiological NaCl solution; 1 part) and stored at room temperature (about 22±2° C.). The quantity of thrombin formed was determined immunologically during storage based on the formation of the prothrombin fragment F1+2 (Enzygnost F1+2 micro, Dade Behring GmbH, Marburg). It was shown that BAPA′ is capable of keeping anticoagulated blood uncoagulated at a concentration in the blood of 500 μM or 50 μM for more than 48 hours (Table 4). At a concentration of 5 μM BAPA′ prevents coagulation for more than 8 hours.

Another assay relates to thrombin formation. The assay can be described thus: Inhibition of thrombin formation (prothrombin fragment F1+2) in hirudin-anticoagulated plasma after activation by kaolin. The settings on record: 37° C. The class given is biochemical, human. The protocol:
In this example thrombin formation was activated in plasma anticoagulated with hirudin by the addition of kaolin and the ability of the inhibitors to inhibit thrombin formation was examined.
Blood sampled from a patient was initially anticoagulated by means of the thrombin inhibitor hirudin. For this purpose 9 parts of blood were mixed with 1 part of hirudin solution (recombinant hirudin HBW 023, Hoechst, Frankfurt, 2000 E/ml of physiological NaCl solution), then centrifuged for 10 minutes at 1300 revolutions per minute (rpm). 900 μl of the plasma anticoagulated with hirudin, present in excess, were mixed in polypropylene tubes with 50 μl of inhibitor solution or 0.9% NaCl solution and 50 μl kaolin suspension (from APTT-Test from Roche Diagnostics, diluted 1:250 before use with physiological NaCl solution), and incubated at 37° C. with light shaking. In this case kaolin acts as a non-physiological surface which activates the blood coagulation thereby finally stimulating thrombin formation. At certain times the quantity of the thrombin formed was determined immunologically on the basis of the formation of the prothrombin fragment F1+2 (Enzygnost F1+2 micro, Dade Behring GmbH, Marburg). This determination is based on an enzyme immunoassay according to the sandwich principle. For this purpose aliquot volumes (600 μl) were anticoagulated at certain times with 0.1 M EDTA (40 μl) and kept at −20° C. To determine the concentration of the prothrombin fragment F1+2 50 μl of plasma (if necessary diluted with PBS, phosphate-buffered saline) were incubated with monoclonal antibodies against the human prothrombin fragment F1+2, which were fixed on a microtitre plate included in the test kit. After a washing stage with PBS, which was used to remove sample material not bound by the antibodies, antibodies conjugated with peroxidase were incubated against human prothrombin binding to the free F1+2 determinants. […] This was then determined photometrically at a wavelength of 492 nm. […]

Consider `COC(=O)[C@H](Cc1cccc(C(=N)N)c1)[C@@H](C)NC(=O)c1ccc(-c2cc[n+]([O-])cc2)cc1` (mixture of isomers) [Otamixaban, 2-(R)-(3-carbamimidoylbenyzyl)-3-(R)-[4-(1-oxypyridin-4-yl)benzoylamino]-butyric acid-methylester], for which the Anticoagulation time with human vein blood (concentration in the blood 5 μM) lay in the range of 12 to 24 h. Also, the “suppression/blocking of thrombin formation after kaolin activation” value in the assay with thrombin formation (concentration not stated in the sentence (FIGS. 1-3, 6)) is “particularly suitable for blocking thrombin formation”.

Consider `N=C(N)c1ccc(C=C2CCCCC(=Cc3ccc(C(=N)N)cc3)C2=O)cc1` [Pefabloc tPA/Xa, 2,7-bis(4-amidinobenzylidene)-cycloheptanone-(1)], for which the Anticoagulation time in the assay with human vein blood (concentration in the blood 500 μM) was 7 to 10 h. In the assay with thrombin formation (inhibitor 100 μM), the “suppression of thrombin formation after kaolin activation” value is given as “totally suppressing thrombin formation”.
